{"source": "paper PMC7345905", "about": "“Microbial Metabolite Urolithin B Inhibits Recombinant Human Monoamine Oxidase A Enzyme” (Metabolites, 2020)", "key": {"human recombinant MAO-B": {"target": "T1, human recombinant MAO-B (Homo sapiens, UniProt P27338)", "T1 construct": "purchased Sigma-Aldrich", "T1 sequence (P27338 1-520)": "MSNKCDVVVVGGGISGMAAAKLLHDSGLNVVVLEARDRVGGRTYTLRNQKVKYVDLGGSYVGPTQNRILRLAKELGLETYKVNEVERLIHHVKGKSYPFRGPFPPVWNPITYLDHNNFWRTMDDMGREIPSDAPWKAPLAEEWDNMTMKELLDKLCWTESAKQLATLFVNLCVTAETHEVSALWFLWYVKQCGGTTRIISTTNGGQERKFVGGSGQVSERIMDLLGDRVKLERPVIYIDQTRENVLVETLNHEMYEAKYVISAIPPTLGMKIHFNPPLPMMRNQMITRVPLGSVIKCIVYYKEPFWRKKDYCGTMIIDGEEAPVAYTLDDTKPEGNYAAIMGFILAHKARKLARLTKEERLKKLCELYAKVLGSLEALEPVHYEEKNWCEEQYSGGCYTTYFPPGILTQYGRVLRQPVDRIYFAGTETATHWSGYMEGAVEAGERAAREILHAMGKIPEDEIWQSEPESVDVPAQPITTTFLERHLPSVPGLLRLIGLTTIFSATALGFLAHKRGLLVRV", "assay": "MAO-Glo MAO-B inhibition assay", "assay_type": "biochemical", "method": "(§1) MAO inhibition assays were performed using a MAO-Glo™ Assay kit (Promega) according to the manufacturer’s instructions. Briefly, 1 µg of human recombinant MAO-A and MAO-B enzyme isoforms were incubated with 160 and 16 µM of MAO substrates, respectively. […] The enzyme reaction was quenched by the addition of a luciferin detection reagent. […] An equal volume of dimethyl sulfoxide (0.1%) was added to the enzyme assay as a control. After 1 h of incubation, the luminescence was measured with a multimode microplate reader (Synergy HT, BioTek, Winooski, VT, USA) to determine the MAO enzyme activities. Initially, the inhibition potential of all the test compounds was evaluated at a concentration of 100 μM. The control reaction (with no inhibitor) with vehicle (DMSO 0.1%) was set at 100% activity. To determine IC50 of the test compounds, the dose dependent enzyme assays were performed. We used range of 0.1 to 50 μM concentrations for MAO-A and 0.1 to 200 μM concentrations of test compounds for the MAO-B enzyme activities. The type of enzyme inhibition was determined using variable concentrations of MAO-A substrate (10–360 µM) and MAO-B substrate (2–64 µM) for the respective enzyme assay. […] A Lineweaver–Burk double reciprocal plot was generated, and the mode of inhibition was determined by visual examination of the plot. The slope of the reciprocal plots was plotted against the inhibitor concentrations and determined the x-axis intercept that represented the inhibitor constant, Ki value."}, "human recombinant MAO-A": {"target": "T2, human recombinant MAO-A (Homo sapiens, UniProt P21397)", "T2 construct": "purchased Sigma-Aldrich", "T2 sequence (P21397 1-527)": "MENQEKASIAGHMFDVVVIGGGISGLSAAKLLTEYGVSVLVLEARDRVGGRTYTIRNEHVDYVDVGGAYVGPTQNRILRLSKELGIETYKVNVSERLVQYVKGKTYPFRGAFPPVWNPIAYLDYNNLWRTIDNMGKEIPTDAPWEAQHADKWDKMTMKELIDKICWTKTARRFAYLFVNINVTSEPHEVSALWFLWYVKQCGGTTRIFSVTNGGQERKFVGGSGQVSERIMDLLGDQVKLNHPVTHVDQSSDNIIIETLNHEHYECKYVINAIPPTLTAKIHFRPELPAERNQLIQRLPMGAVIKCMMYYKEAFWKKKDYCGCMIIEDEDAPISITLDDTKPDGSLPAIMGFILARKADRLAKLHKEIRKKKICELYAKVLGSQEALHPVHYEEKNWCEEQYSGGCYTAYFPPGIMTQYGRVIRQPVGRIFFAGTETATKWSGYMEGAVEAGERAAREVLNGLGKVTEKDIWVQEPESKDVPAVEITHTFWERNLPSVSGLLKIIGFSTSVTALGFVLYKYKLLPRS", "assay": "MAO-Glo MAO-A inhibition assay", "assay_type": "biochemical", "conditions": "100 µM", "method": "as §1"}}, "note": "“And” between values parts separate entries of the source, which are not always exact repeats. Identical values can stand only once."}
{"smiles": "O=c1oc2c(O)c(O)cc3c(=O)oc4c(O)c(O)cc1c4c23", "note": "[EA, ellagic acid]", "values": [{"measurement": "inhibition at 100 µM", "setting": "human recombinant MAO-B; 100 μM", "value": "20 to 30", "unit": "%"}, {"measurement": "MAO-B enzyme assay, Percent of control", "setting": "human recombinant MAO-B; 100 µM (Figure 1C), N=1-3, 100 µM", "value": "89.6601% of control and 87.5901% of control"}, {"measurement": "remaining activity at 100 µM", "setting": "human recombinant MAO-B; 100 µM (Figure 1C), N=1-3, read-out: MAO-B enzyme assay, Percent of control", "value": 88.7, "unit": "%"}, {"measurement": "MAO-A enzyme assay, Percent of control", "setting": "human recombinant MAO-A; 100 µM (Figure 1A), N=1-3", "value": "80.5551% of control and 100.559% of control and 100.148% of control"}, {"measurement": "inhibition of MAO-A enzyme activity", "setting": "human recombinant MAO-A; compared to vehicle", "value": "failed to inhibit"}]}
